Source: PubChem BioAssay AID248 (DTP/NCI, 2004)
Where “and” joins values, the source holds several entries; their conditions need not be identical. Equal entries are not always repeated. Inconclusive results and toxic doses are left out. Rule as the data show it: active = T/C of 150% or more; inactive = T/C below 125%.

Tested on: L1210 leukemia ip in BDF1 mice, survival T/C
Assay: NCI In Vivo Anticancer Drug Screen. Data for tumor model L1210 Leukemia (intraperitoneal) in B6D2F1 (BDF1) mice
Conditions: endpoint: mean survival time, higher = longer survival
How it was run: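 Read-out is survival time, reported as the treated-group measurement over the vehicle-control measurement.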

[1] = dose: 100.0 mg/kg/injection, schedule: Q04DX003 (ip), vehicle: Klucel (hydroxypropylcellulose) (HPC)
[2] = dose: 200.0 mg/kg/injection, schedule: Q04DX003 (ip), vehicle: Klucel (hydroxypropylcellulose) (HPC)
[3] = dose: 400.0 mg/kg/injection, schedule: Q04DX003 (ip), vehicle: Klucel (hydroxypropylcellulose) (HPC)
[4] = dose: 100.0 mg/kg/injection, schedule: Q01DX009 (ip), vehicle: saline
[5] = dose: 200.0 mg/kg/injection, schedule: Q01DX009 (ip), vehicle: saline
[6] = dose: 100.0 mg/kg/injection, schedule: Q04DX002 (ip), vehicle: saline

Measured: T/C

CC1CCC2(CC1)CCN(CCCN(C)C)CC2
inactive: dose: 15.0 mg/kg/injection, schedule: Q01DX015 (ip), vehicle: saline 102 % of control | dose: 30.0 mg/kg/injection, schedule: Q01DX015 (ip), vehicle: saline 102 % of control | dose: 60.0 mg/kg/injection, schedule: Q01DX015 (ip), vehicle: saline 100 % of control | dose: 120.0 mg/kg/injection, schedule: Q01DX015 (ip), vehicle: saline 104 % of control | dose: 200.0 mg/kg/injection, schedule: Q01DX015 (ip), vehicle: saline 107 % of control

COc1cc([N+](=O)[O-])ccc1NC(=O)C(Br)C(Br)c1ccccc1 (configuration not stated)
inactive: dose: 100.0 mg/kg/injection, schedule: Q01DX009 (ip), vehicle: other 110 % of control | dose: 200.0 mg/kg/injection, schedule: Q01DX009 (ip), vehicle: other 96 % of control | dose: 400.0 mg/kg/injection, schedule: Q01DX009 (ip), vehicle: other 88 % of control

CC1=CCC(C/C=N/N=C/CC2CC=C(C)C2(C)C)C1(C)C (configuration not stated)
inactive: dose: 100.0 mg/kg/injection, schedule: Q01DX009 (sc), vehicle: olive oil, sesame oil, peanut oil 100 % of control | dose: 100.0 mg/kg/injection, schedule: Q04DX003 (sc), vehicle: olive oil, sesame oil, peanut oil 97 % of control | dose: 200.0 mg/kg/injection, schedule: Q01DX009 (sc), vehicle: olive oil, sesame oil, peanut oil 100 % of control | dose: 200.0 mg/kg/injection, schedule: Q04DX003 (sc), vehicle: olive oil, sesame oil, peanut oil 101 % of control | dose: 400.0 mg/kg/injection, schedule: Q01DX009 (sc), vehicle: olive oil, sesame oil, peanut oil 98 % of control | dose: 400.0 mg/kg/injection, schedule: Q04DX003 (sc), vehicle: olive oil, sesame oil, peanut oil 106 % of control

CCCCCCCCC[As](=O)(O)O
inactive: dose: 1.5 mg/kg/injection, schedule: Q01DX001 (ip), vehicle: carboxymethylcellulose (CMC) 98 % of control | dose: 3.0 mg/kg/injection, schedule: Q01DX001 (ip), vehicle: carboxymethylcellulose (CMC) 104 % of control | dose: 60.0 mg/kg/injection, schedule: Q01DX001 (ip), vehicle: carboxymethylcellulose (CMC) 109 % of control

CN(C)C(=O)Sc1c(Cl)cc(S(=O)(=O)F)cc1[N+](=O)[O-]
inactive: [1] 102 % of control | [2] 101 % of control | [3] 100 % of control

CSCOC1C(COC(c2ccccc2)(c2ccccc2)c2ccccc2)OC(OCc2ccccc2)C(NC(C)=O)C1OCc1ccccc1 (configuration not stated)
inactive: dose: 25.0 mg/kg/injection, schedule: Q01DX001 (ip), vehicle: saline with Tween-80 95 % of control | dose: 50.0 mg/kg/injection, schedule: Q01DX001 (ip), vehicle: saline with Tween-80 91 % of control | dose: 100.0 mg/kg/injection, schedule: Q01DX001 (ip), vehicle: saline with Tween-80 101 % of control and 91 % of control | dose: 400.0 mg/kg/injection, schedule: Q01DX001 (ip), vehicle: saline with Tween-80 94 % of control

CC1=CC(=O)c2[nH]ncc2C1=O
inactive: dose: 10.0 mg/kg/injection, schedule: Q01DX001 (ip), vehicle: water 93 % of control

C[N+](C)(CCC#N)Cc1ccc(C[N+](C)(C)CCC#N)cc1
inactive: dose: 5.0 mg/kg/injection, schedule: Q01DX001 (ip), vehicle: saline 90 % of control | dose: 10.0 mg/kg/injection, schedule: Q01DX001 (ip), vehicle: saline 95 % of control | dose: 20.0 mg/kg/injection, schedule: Q01DX001 (ip), vehicle: saline 95 % of control

Cc1ccc(NC(=O)NC2CCCCC2)cc1
inactive: dose: 100.0 mg/kg/injection, schedule: Q01DX009 (ip), vehicle: saline with Tween-80 94 % of control | dose: 200.0 mg/kg/injection, schedule: Q01DX009 (ip), vehicle: saline with Tween-80 97 % of control | dose: 400.0 mg/kg/injection, schedule: Q01DX009 (ip), vehicle: saline with Tween-80 92 % of control

Clc1ccccc1Nc1nnnc2ccccc12
inactive: dose: 50.0 mg/kg/injection, schedule: Q01DX009 (ip), vehicle: saline 91 % of control | [4] 95 % of control | dose: 100.0 mg/kg/injection, schedule: Q04DX003 (ip), vehicle: acetone 96 % of control | [5] 90 % of control | dose: 200.0 mg/kg/injection, schedule: Q04DX003 (ip), vehicle: acetone 100 % of control | dose: 400.0 mg/kg/injection, schedule: Q04DX003 (ip), vehicle: acetone 98 % of control

O=C(CCOCc1ccccc1)N1Cc2cc3ccccc3nc2C1
inactive: dose: 10.0 mg/kg/injection, schedule: Q04DX003 (ip), vehicle: alcohol 96 % of control | dose: 20.0 mg/kg/injection, schedule: Q04DX003 (ip), vehicle: alcohol 97 % of control | dose: 40.0 mg/kg/injection, schedule: Q04DX003 (ip), vehicle: alcohol 92 % of control | dose: 80.0 mg/kg/injection, schedule: Q04DX003 (ip), vehicle: alcohol 103 % of control | dose: 160.0 mg/kg/injection, schedule: Q04DX003 (ip), vehicle: alcohol 92 % of control

O=C(Nc1cccc(C(F)(F)F)c1)Oc1ccc(F)cc1
inactive: dose: 100.0 mg/kg/injection, schedule: Q01DX001 (ip), vehicle: Klucel (hydroxypropylcellulose) (HPC) 104 % of control | dose: 100.0 mg/kg/injection, schedule: Q01DX009 (ip), vehicle: Klucel (hydroxypropylcellulose) (HPC) 107 % of control and 116 % of control | dose: 100.0 mg/kg/injection, schedule: Q04DX002 (ip), vehicle: Klucel (hydroxypropylcellulose) (HPC) 92 % of control | [1] 94 % of control | dose: 200.0 mg/kg/injection, schedule: Q01DX001 (ip), vehicle: Klucel (hydroxypropylcellulose) (HPC) 109 % of control | dose: 200.0 mg/kg/injection, schedule: Q01DX009 (ip), vehicle: Klucel (hydroxypropylcellulose) (HPC) 104 % of control and 115 % of control | dose: 200.0 mg/kg/injection, schedule: Q04DX002 (ip), vehicle: Klucel (hydroxypropylcellulose) (HPC) 93 % of control and 92 % of control | [2] 99 % of control | dose: 400.0 mg/kg/injection, schedule: Q01DX001 (ip), vehicle: Klucel (hydroxypropylcellulose) (HPC) 98 % of control | dose: 400.0 mg/kg/injection, schedule: Q01DX009 (ip), vehicle: Klucel (hydroxypropylcellulose) (HPC) 104 % of control and 113 % of control | dose: 400.0 mg/kg/injection, schedule: Q04DX002 (ip), vehicle: Klucel (hydroxypropylcellulose) (HPC) 102 % of control and 108 % of control | [3] 105 % of control

Cc1cn(C2CC(O)C(CF)O2)c(=O)[nH]c1=O (configuration not stated)
inactive: dose: 100.0 mg/kg/injection, schedule: Q01DX005 (ip), vehicle: saline 117 % of control | dose: 200.0 mg/kg/injection, schedule: Q01DX005 (ip), vehicle: saline 122 % of control

CCOC(=O)CC(=O)CCc1ccccc1
inactive: dose: 100.0 mg/kg/injection, schedule: Q01DX001 (ip), vehicle: saline 104 % of control | [4] 94 % of control and 100 % of control | [6] 103 % of control and 105 % of control | dose: 100.0 mg/kg/injection, schedule: Q04DX003 (ip), vehicle: saline 113 % of control | dose: 200.0 mg/kg/injection, schedule: Q01DX001 (ip), vehicle: saline 104 % of control | [5] 94 % of control and 102 % of control | dose: 200.0 mg/kg/injection, schedule: Q04DX002 (ip), vehicle: saline 100 % of control and 108 % of control | dose: 200.0 mg/kg/injection, schedule: Q04DX003 (ip), vehicle: saline 106 % of control | dose: 400.0 mg/kg/injection, schedule: Q01DX001 (ip), vehicle: saline 103 % of control | dose: 400.0 mg/kg/injection, schedule: Q01DX009 (ip), vehicle: saline 92 % of control and 97 % of control | dose: 400.0 mg/kg/injection, schedule: Q04DX002 (ip), vehicle: saline 96 % of control and 102 % of control | dose: 400.0 mg/kg/injection, schedule: Q04DX003 (ip), vehicle: saline 105 % of control

CN(C)CCCN=C(N)CCl
inactive: dose: 12.5 mg/kg/injection, schedule: Q04DX002 (ip), vehicle: saline 101 % of control | dose: 25.0 mg/kg/injection, schedule: Q04DX002 (ip), vehicle: saline 108 % of control | dose: 50.0 mg/kg/injection, schedule: Q04DX002 (ip), vehicle: saline 87 % of control | [6] 97 % of control
